From patent EP0326331B1, “Substituted quinolines and cinnolines” (Dow AgroSciences LLC, priority 1988, dated 1989)
Read-outs that look alike come from different tables or passages of the source.

How the values were obtained:
[1] = test system: Puccinia recondita tritici (leaf rust); experiment: Test 1 greenhouse foliar spray screen, leaf rust on wheat; format: in vivo; conditions: for LEAF RUST: disease control rating, foliar spray on wheat, 400 ppm (+++ at 100 ppm)
[2] = test system: Pseudoperonospora cubensis (downy mildew); experiment: Test 1 greenhouse foliar spray screen, downy mildew on squash; format: in vivo; conditions: for DOWN MDEW: disease control rating, foliar spray on squash, 400 ppm (+++ at 100 ppm); for activity against downy mildew: summary statement in the description
[3] = test system: Venturia inaequalis (apple scab); experiment: Test 1 greenhouse foliar spray screen, apple scab on apple seedling; format: in vivo; conditions: for APPL SCAB: disease control rating, foliar spray on apple seedling, 400 ppm (+++ at 100 ppm)
[4] = test system: Twospotted spider mites (Tetranychus urticae Koch); experiment: Mite/insect screen, SM; format: in vivo; conditions: Tetranychus urticae, percent mortality, read-out: SM RESULTS %
In short: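 Foliar spray to runoff (10 psi), 1 h drying; aqueous dilutions from acetone/alcohol emulsifier stock. Mortality (%) after standard exposure.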

[5] = test system: Septoria tritici (leaf blotch); experiment: Test 1 greenhouse foliar spray screen, leaf blotch on wheat; format: in vivo; conditions: for LEAF BLOT: disease control rating, foliar spray on wheat, 400 ppm (+++ at 100 ppm)
CUCURBIT POWDERY MILDEW = experiment: Greenhouse combination test with known fungicide, foliar spray; conditions: 1-9 rating scale, time 4 hours
Procedure: (§3) The test compounds were formulated for application by dissolving 50 mg of the compound into 1.25 ml of solvent. The solvent was prepared by mixing 50 ml of "Tween 20" with 475 ml of acetone and 475 ml of ethanol. The solvent/compound solution was diluted to 125 ml with deionized water. The resulting formulation contains 400 ppm test chemical. Lower concentrations were obtained by serial dilution with the solvent-surfactant mixture.
(§4) The formulated technical compounds were sprayed on all foliar surfaces of the host plants (or cut berry) to past run-off. Single pots of each host plant were placed on raised, revolving pedestals in a fume hood. Test solutions were sprayed on all foliar surfaces. All treatments were allowed to dry and the plants were inoculated with the appropriate pathogens within 2-4 hours.
(§5) In the tables, the time given under "Time in hours" is the number of hours elapsing between treatment and inoculation. […] In such cases, curative activity was being tested. […] In such cases, residual or protectant activity was tested. […] The results were evaluated on a 1-9 rating scale. These ratings represent the following percent disease control: 1 = 0-19%, 2 = 20-29%, 3 = 30-39%, 4 = 40-59%, 5 = 60-74%, 6 = 75-89%, 7 = 90-96%, 8 = 97-99%, and 9 = 100%.

corn rootworm = experiment: Mite/insect screen, CRW; format: in vivo; conditions: percent mortality, read-out: CRW RESULTS %
In short: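 Read-out: % mortality after standard exposure. Formulation: acetone/alcohol (50:50) with emulsifiers at 23 g and 13 g per liter, water-diluted to final test levels.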

[6] = test system: southern armyworm (Spodopetra eridania Cramer); experiment: Mite/insect screen, SAW; format: in vivo; conditions: Spodoptera eridania, percent mortality, read-out: SAW RESULTS %
In short: (§1)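 Read-out: percent mortality after standard exposure periods. Test solutions were water dilutions of compound dissolved in acetone/alcohol (50:50) with emulsifier blends; leaves were sprayed to runoff on both surfaces and air-dried for one hour before exposure.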

[7] = test system: Erysiphe graminis tritici (powdery mildew); experiment: Test 1 greenhouse foliar spray screen, powdery mildew on wheat; format: in vivo; conditions: for POWD MDEW: disease control rating, foliar spray on wheat, 400 ppm (+++ at 100 ppm)
[8] = test system: Botrytis cinerea (gray mold); experiment: Test 1 greenhouse foliar spray screen, gray mold on grape berries; format: in vivo; conditions: for GRAY MOLD: disease control rating, spray on grape berries, 400 ppm (+++ at 100 ppm)
Phytophthora infestans = format: in vivo; conditions: field test
CUCURBIT DOWNY MILDEW = experiment: Greenhouse combination test with known fungicide, foliar spray; conditions: 1-9 rating scale
Procedure: as §3, §4, §5

[9] = test system: melon aphids (Aphis gossypii Glover); experiment: Mite/insect screen, MA; format: in vivo; conditions: Aphis gossypii, percent mortality, read-out: MA RESULTS %
In short: as §1

[10] = test system: Pyricularia oryzae (rice blast); experiment: whole plant or invertebrate; format: in vivo; conditions: for RICE BLAST: disease control rating, foliar spray on rice, 400 ppm (+++ at 100 ppm); for activity against rice blast: summary statement in the description
Rhynchosporium secalis = experiment: Field tests against plant pathogens; format: in vivo; conditions: field test, crop barley
Text: (§2) Selected compounds were field tested against a variety of plant pathogens. […]

Alternaria brassica = experiment: Field tests against plant pathogens; format: in vivo; conditions: field test, crop rape
Text: as §2

Pyrenophora teres = experiment: Field tests against plant pathogens; format: in vivo; conditions: field test, crop barley
Text: as §2

Sphaerotheca fuliginea = experiment: Field tests against plant pathogens; format: in vivo; conditions: field test, crop cucumber
Text: as §2

Plasmopara viticola = experiment: Field tests against plant pathogens; format: in vivo; conditions: field test, crop grape
Text: as §2

[11] = test system: Cercospora beticola (leaf spot); experiment: Test 1 greenhouse foliar spray screen, leaf spot on sugar beet; format: in vivo
Puccinia recondita = experiment: Field tests against plant pathogens; format: in vivo; conditions: field test, crop wheat
Text: as §2

plant pathogens = experiment: Fungicidal efficacy against a broad spectrum of plant pathogens (summary of screen); format: in vivo; conditions: summary statement in the description
Piricularia oryzae = format: in vivo; conditions: field test, crop rice
[12] = test system: Erysiphe graminis tritici; experiment: Field tests against plant pathogens; format: in vivo; conditions: field test, crop wheat
Text: as §2

[13] = test system: Pseudocercosporella herpotrichoides; experiment: Field tests against plant pathogens; format: in vivo; conditions: field test, crop wheat
Text: as §2

Uncinula necator = experiment: Field tests against plant pathogens; format: in vivo; conditions: field test, crop grape
Text: as §2

Podosphaera leucotricha = experiment: Field tests against plant pathogens; format: in vivo; conditions: field test, crop apple
Text: as §2

[14] = foliar, rate 200 ppm, foliar spray on squash

SMILES: Fc1cccc2c(NCCc3ccccc3)ccnc12 [Example 5, 8-fluoro-N-(2-phenylethyl)-4-quinolinamine]
- LEAF RUST [1]: +++ (90-100% control at 100 ppm)
- DOWN MDEW [2]: +++ (90-100% control at 100 ppm)
- activity against downy mildew [2]: particularly excellent activity
- APPL SCAB [3]: - (0-19% control at 400 ppm)
- mortality at 200 ppm ([4]; SAW, SM & MA RATE 200 PPM): 0%
- LEAF BLOT [5]: +++ (90-100% control at 100 ppm)
- RESULTS (CUCURBIT POWDERY MILDEW; Ex. 5 alone 6.00 ppm): 1.0
- RESULTS (CUCURBIT POWDERY MILDEW; Ex. 5 alone 12.00 ppm): 1.0
- RESULTS (CUCURBIT POWDERY MILDEW; Ex. 5 alone 24.00 ppm): 5.0
- RESULTS (CUCURBIT POWDERY MILDEW; Ex. 5 alone 48.00 ppm): 6.0
- mortality at 12 ppm (corn rootworm; CRW RATE 12.00 PPM): 0%
- mortality at 200 ppm ([6]; SAW, SM & MA RATE 200 PPM): 0%
- POWD MDEW [7]: ++ (90-100% control at 400 ppm)
- GRAY MOLD [8]: - (0-19% control at 400 ppm)
- pathogens against which compounds of the invention showed activity (Phytophthora infestans; crop potato): Phytophthora infestans
- pathogens against which compounds of the invention showed activity (Phytophthora infestans; crop tomato): Phytophthora infestans
- RESULTS (CUCURBIT DOWNY MILDEW; Ex. 5 alone 6.00 ppm, time 4 hours): 1.0
- RESULTS (CUCURBIT DOWNY MILDEW; Ex. 5 alone 12.00 ppm, time 4 hours): 7.0
- RESULTS (CUCURBIT DOWNY MILDEW; Ex. 5 alone 24.00 ppm, time 4 hours): 7.5
- RESULTS (CUCURBIT DOWNY MILDEW; Ex. 5 alone 48.00 ppm, time 4 hours (treatment before inoculation)): 8.0
- mortality at 200 ppm ([9]; SAW, SM & MA RATE 200 PPM): 0%
- RICE BLAST [10]: ++ (90-100% control at 400 ppm)
- activity against rice blast [10]: particularly excellent activity
- pathogens against which compounds of the invention showed activity (Rhynchosporium secalis): Rhynchosporium secalis
- pathogens against which compounds of the invention showed activity (Alternaria brassica): Alternaria brassica
- pathogens against which compounds of the invention showed activity (Pyrenophora teres): Pyrenophora teres
- pathogens against which compounds of the invention showed activity (Sphaerotheca fuliginea): Sphaerotheca fuliginea
- pathogens against which compounds of the invention showed activity (Plasmopara viticola): Plasmopara viticola

SMILES: Fc1cccc2c(NCCc3ccc4ccccc4c3)ccnc12 [Example 159, 8-fluoro-N-[2-(2-naphthyl)ethyl]-4-quinolinamine]
- LEAF RUST [1]: +++ (90-100% control at 100 ppm)
- DOWN MDEW [2]: +++ (90-100% control at 100 ppm)
- activity against downy mildew [2]: particularly excellent activity
- APPL SCAB [3]: - (0-19% control at 400 ppm)
- mortality at 200 ppm ([4]; SAW, SM & MA RATE 200 PPM): 0%
- LEAF BLOT [5]: +++ (90-100% control at 100 ppm)
- mortality at 12 ppm (corn rootworm; CRW RATE 12.00 PPM): 0%
- mortality at 200 ppm ([6]; SAW, SM & MA RATE 200 PPM): 0%
- POWD MDEW [7]: ++ (90-100% control at 400 ppm)
- GRAY MOLD [8]: - (0-19% control at 400 ppm)
- LEAF SPOT ([11]; disease control rating, foliar spray on sugar beet, 400 ppm (+++ at 100 ppm)): + (20-89% control at 400 ppm)
- mortality at 200 ppm ([9]; SAW, SM & MA RATE 200 PPM): 0%
- RICE BLAST [10]: +++ (90-100% control at 100 ppm)
- pathogens against which compounds of the invention showed activity (Rhynchosporium secalis): Rhynchosporium secalis
- pathogens against which compounds of the invention showed activity (Puccinia recondita): Puccinia recondita
- pathogens against which compounds of the invention showed activity (Plasmopara viticola): Plasmopara viticola

SMILES: Cc1ccc(CCOc2ccnc3c(F)cccc23)cc1 [Example 212, 8-fluoro-4-[2-(4-methylphenyl)ethoxy]quinoline]
- pest or weed control at 400 ppm ([1]; Puccinia recondita, foliar, Test 1, foliar spray on wheat, disease control rating at 400 ppm / 100 ppm): 90 to 100%
- pest or weed control at 400 ppm ([2]; Pseudoperonospora cubensis, foliar, Test 1, foliar spray on squash, disease control rating at 400 ppm / 100 ppm, read-out: DOWN MDEW): 90 to 100%
- activity against downy mildew [2]: particularly excellent activity
- pest or weed control at 400 ppm ([3]; Venturia inaequalis, Test 1, foliar spray on apple seedling, disease control rating at 400 ppm / 100 ppm, read-out: APPL SCAB): 90 to 100%
- mortality at 200 ppm [4, 14]: 0%
- pest or weed control at 400 ppm ([5]; Zymoseptoria tritici, Test 1, foliar spray on wheat, disease control rating at 400 ppm / 100 ppm, read-out: LEAF BLOT): 90 to 100%
- mortality at 12 ppm (corn rootworm; CRW rate 12.00 ppm): 0%
- mortality at 200 ppm [6, 14]: 0%
- activity against a broad spectrum of plant pathogens (plant pathogens): particularly excellent activity
- pest or weed control at 400 ppm ([7]; Blumeria graminis, foliar, Test 1, foliar spray on wheat, disease control rating at 400 ppm / 100 ppm, read-out: POWD MDEW): 90 to 100%
- pest or weed control at 400 ppm ([8]; Botrytis cinerea, foliar, Test 1, spray on grape berries, disease control rating at 400 ppm / 100 ppm): 0 to 19%
- pest or weed control at 400 ppm ([11]; Cercospora beticola, Test 1, foliar spray on sugar beet, disease control rating at 400 ppm / 100 ppm): 0 to 19%
- pathogens against which compounds of the invention showed activity (Piricularia oryzae): Piricularia oryzae
- mortality at 200 ppm [9, 14]: 0%
- pest or weed control at 400 ppm ([10]; Pyricularia oryzae, foliar, read-out: RICE BLAST, Test 1, foliar spray on rice, disease control rating at 400 ppm / 100 ppm): 90 to 100%
- activity against rice blast [10]: particularly excellent activity
- pathogens against which compounds of the invention showed activity (Rhynchosporium secalis): Rhynchosporium secalis
- pathogens against which compounds of the invention showed activity (Alternaria brassica): Alternaria brassica
- pathogens against which compounds of the invention showed activity (Pyrenophora teres): Pyrenophora teres
- pathogens against which compounds of the invention showed activity (Sphaerotheca fuliginea): Sphaerotheca fuliginea
- pathogens against which compounds of the invention showed activity [12]: Erysiphe graminis tritici
- pathogens against which compounds of the invention showed activity [13]: Pseudocercosporella herpotrichoides
- pathogens against which compounds of the invention showed activity (Plasmopara viticola): Plasmopara viticola
- pathogens against which compounds of the invention showed activity (Uncinula necator): Uncinula necator
- pathogens against which compounds of the invention showed activity (Podosphaera leucotricha): Podosphaera leucotricha
